{"source": "paper PMC3328449", "about": "“Inhibition of Diacylglycerol–Sensitive TRPC Channels by Synthetic and Natural Steroids” (PLoS ONE, 2012)", "target": "T1, human α1A-receptors (Homo sapiens, UniProt P35348)", "T1 construct": "expressed in transfected cells", "T1 sequence (P35348 1-466)": "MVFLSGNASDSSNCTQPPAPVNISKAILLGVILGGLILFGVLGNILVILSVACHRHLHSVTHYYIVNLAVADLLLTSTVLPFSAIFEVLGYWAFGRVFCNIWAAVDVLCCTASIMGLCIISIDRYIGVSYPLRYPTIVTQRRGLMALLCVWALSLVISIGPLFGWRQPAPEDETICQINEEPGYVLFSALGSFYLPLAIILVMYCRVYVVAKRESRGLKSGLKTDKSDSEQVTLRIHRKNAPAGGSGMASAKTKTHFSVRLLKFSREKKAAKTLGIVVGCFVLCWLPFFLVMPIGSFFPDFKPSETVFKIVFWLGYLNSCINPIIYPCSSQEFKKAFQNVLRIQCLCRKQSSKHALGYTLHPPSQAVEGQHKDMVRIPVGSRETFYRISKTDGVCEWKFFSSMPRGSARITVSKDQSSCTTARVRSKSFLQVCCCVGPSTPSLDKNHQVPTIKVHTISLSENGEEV", "assay": "Phenylephrine-induced Ca2+ release in CHO cells expressing human α1A-receptors (fluo-4)", "type": "cell-based", "settings": "10 µM phenylephrine, 1 mM EGTA buffer", "protocol": "For measurement of norgestimate effects on adrenoceptor signaling a CHO cell line stably expressing human α1A-receptors (GenBank accession number NM_000680.2) under control of a CMV promoter was used. CHO cells were kept in HAM's F-12 medium (with glutaMAX I) supplemented with 10% (v/v) fetal bovine serum (Biochrom), 1 mM glutamine, and 0.6 mg/ml geneticin.\n[Ca^2+]i measurements in CHO cells stably expressing human α1A –receptors were performed essentially as described for HEK-FITR cells. The α1- agonist phenylephrine was used for receptor stimulation.\nSupplementary file pone.0035393.s001.tif: Figure S1 Stimulatory effect of norgestimate on α1A- receptor-mediated Ca^2+ signaling in CHO cells. (A) Phenylephrine (Phe) -induced changes of [Ca^2+]i were measured in a stable CHO cell line expressing human α1A-adrenoceptors. Cells loaded with fluo-4 were pre-incubated with or without 30 µM norgestimate (NG) and challenged with 10 µM phenylephrine or control buffer. Representative traces are shown. Fluorometric imaging plate reader [Ca^2+]i measurements were performed essentially as described for HEK-FITR cells (see Materials and Methods) with the exception that the extracellular buffer contained 1 mM EGTA instead of 2 mM Ca^2+. (B) The relative increase in Ca^2+ release induced in the presence of different concentrations of norgestimate is shown. […]"}
{"smiles": "C#C[C@]1(OC(C)=O)CC[C@H]2[C@@H]3CCC4=CC(=NO)CC[C@@H]4[C@H]3CC[C@@]21CC", "note": "(mixture of isomers) [norgestimate]", "values": [{"measurement": "Effect on phenylephrine-induced Ca2+ release", "value": "significantly stimulated"}]}
